# Laboratory results: US20250114345A1, “COMPOUNDS AND COMPOSITIONS AS CBP/P300 DEGRADERS AND USES THEREOF” (Oncopia Therapeutics, Inc. d/b/a/ SK Life Science Labs, priority 2023, published 2025)
# Biological target: T1, p300 (Homo sapiens, UniProt Q09472)
# T1 construct: host or cells: A549 P300 HiBit cells
# Experiment: P300 degradation, HiBit technology in A549 P300 HiBit cells (2 h)
# Assay type: cell-based
# Details: 2 hrs post treatment; for Dmax: A549, A549 P300 HiBit cells; for DC50: A549 P300 HiBit cells
# Summary of the method: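 A549 HiBiT knock-in cells seeded overnight at 37 °C, 5% CO2 in F-12K with 10% heat-inactivated FBS, then given serial dilutions of compound from 10 mM DMSO stocks. Lytic HiBiT detection reagent added for 10 min at room temperature; luminescence read. Potency and Dmax reported.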
# T1 sequence (Q09472 whole entry): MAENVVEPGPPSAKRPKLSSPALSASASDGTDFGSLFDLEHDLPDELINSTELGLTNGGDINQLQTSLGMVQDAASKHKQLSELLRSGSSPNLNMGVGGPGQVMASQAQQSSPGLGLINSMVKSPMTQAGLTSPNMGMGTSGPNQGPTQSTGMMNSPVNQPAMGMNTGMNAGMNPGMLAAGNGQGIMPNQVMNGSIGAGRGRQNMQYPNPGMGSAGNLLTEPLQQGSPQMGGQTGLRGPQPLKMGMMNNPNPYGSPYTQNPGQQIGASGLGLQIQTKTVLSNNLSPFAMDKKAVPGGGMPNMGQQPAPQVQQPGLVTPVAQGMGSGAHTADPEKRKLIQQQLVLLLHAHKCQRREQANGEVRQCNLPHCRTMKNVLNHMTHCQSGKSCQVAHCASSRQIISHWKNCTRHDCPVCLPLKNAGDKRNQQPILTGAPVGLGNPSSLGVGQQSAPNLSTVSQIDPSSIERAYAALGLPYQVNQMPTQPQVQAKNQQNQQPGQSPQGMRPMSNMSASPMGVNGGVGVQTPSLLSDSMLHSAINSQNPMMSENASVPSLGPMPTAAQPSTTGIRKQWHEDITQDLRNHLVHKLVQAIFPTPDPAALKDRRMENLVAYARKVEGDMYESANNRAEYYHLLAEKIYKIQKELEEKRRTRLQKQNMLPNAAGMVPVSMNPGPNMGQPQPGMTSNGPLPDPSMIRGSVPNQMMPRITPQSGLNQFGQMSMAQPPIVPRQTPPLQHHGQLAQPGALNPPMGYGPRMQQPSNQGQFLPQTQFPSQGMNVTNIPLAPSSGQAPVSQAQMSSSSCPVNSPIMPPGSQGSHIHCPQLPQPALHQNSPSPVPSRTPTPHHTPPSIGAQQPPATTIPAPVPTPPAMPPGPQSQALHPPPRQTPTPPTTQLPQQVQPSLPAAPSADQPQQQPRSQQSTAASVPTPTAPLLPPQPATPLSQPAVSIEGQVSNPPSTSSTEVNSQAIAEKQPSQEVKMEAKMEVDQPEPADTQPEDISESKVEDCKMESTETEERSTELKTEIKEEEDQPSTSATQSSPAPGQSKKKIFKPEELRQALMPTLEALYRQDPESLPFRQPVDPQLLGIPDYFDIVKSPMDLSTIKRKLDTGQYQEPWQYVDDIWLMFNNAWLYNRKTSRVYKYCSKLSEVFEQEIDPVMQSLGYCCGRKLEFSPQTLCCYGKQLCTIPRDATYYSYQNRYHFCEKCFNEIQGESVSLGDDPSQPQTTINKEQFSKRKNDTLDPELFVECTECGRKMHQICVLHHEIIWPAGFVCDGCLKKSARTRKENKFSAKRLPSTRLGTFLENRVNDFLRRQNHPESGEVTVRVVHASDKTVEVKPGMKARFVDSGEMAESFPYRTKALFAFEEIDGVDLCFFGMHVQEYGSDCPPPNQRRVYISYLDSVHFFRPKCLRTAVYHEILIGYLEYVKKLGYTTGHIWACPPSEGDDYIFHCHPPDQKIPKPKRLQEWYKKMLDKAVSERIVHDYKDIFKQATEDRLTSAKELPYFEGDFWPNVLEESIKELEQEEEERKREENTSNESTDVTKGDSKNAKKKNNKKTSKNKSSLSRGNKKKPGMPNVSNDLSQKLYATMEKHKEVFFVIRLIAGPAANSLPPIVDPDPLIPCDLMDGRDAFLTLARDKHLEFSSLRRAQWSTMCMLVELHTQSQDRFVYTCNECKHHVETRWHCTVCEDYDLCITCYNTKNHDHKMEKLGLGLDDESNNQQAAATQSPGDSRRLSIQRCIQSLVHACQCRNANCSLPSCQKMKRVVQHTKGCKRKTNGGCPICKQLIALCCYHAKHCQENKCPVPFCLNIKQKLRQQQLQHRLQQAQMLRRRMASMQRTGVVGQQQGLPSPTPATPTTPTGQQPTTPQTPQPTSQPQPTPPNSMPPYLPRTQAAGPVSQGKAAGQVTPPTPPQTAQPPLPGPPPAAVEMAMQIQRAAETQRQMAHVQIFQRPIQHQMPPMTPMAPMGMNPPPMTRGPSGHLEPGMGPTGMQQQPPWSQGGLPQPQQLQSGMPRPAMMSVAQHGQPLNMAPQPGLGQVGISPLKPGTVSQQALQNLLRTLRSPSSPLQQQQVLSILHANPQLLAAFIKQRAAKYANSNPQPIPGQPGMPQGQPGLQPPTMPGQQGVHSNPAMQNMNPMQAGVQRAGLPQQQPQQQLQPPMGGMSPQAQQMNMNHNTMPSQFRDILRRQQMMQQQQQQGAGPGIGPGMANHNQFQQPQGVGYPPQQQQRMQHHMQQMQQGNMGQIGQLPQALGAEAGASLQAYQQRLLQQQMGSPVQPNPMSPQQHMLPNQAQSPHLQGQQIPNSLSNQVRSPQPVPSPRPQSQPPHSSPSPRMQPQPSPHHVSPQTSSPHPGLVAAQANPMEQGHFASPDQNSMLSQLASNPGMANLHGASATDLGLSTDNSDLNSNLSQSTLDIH
Structure (SMILES),Dmax,DC50
"Cc1cc2c(N3CCN(C)c4cc(-c5ccc(C(=O)NCC#Cc6ccc7occ(C8CCC(=O)NC8=O)c7c6)nc5)ncc43)cc(C3CCOCC3)cc2n(C)c1=O (stereo not shown) [Example B31, 5-(4-(1,3-dimethyl-2-oxo-7-(tetrahydro-2H-pyran-4-yl)-1,2-dihydroquinolin-5-yl)-1-methyl-1,2,3,4-tetrahydropyrido[3,4-b]pyrazin-7-yl)-N-(3-(3-(2,6-dioxopiperidin-3-yl)benzofuran-5-yl)prop-2-yn-1-yl) picolinamide]",> 80%,< 1 nM
"Cc1cc2c(N3CCCc4nc(-c5ccc(C(=O)NCC#Cc6ccc7occ(C8CCC(=O)NC8=O)c7c6)nc5)ncc43)nc(N3CC[Si](C)(C)CC3)cc2n(C)c1=O (stereo not shown) [Example B139, 5-(5-(7-(4,4-dimethyl-1,4-azasilinan-1-yl)-1,3-dimethyl-2-oxo-1,2-dihydro-1,6-naphthyridin-5-yl)-5,6,7,8-tetrahydropyrido[3,2-d]pyrimidin-2-yl)-N-(3-(3-(2,6-dioxopiperidin-3-yl)benzofuran-5-yl)prop-2-yn-1-yl)picolinamide]",60 to 79%,100 to 999 nM
"COc1cc(-c2cc3cccc(-c4cc(C(C)C)c5c(c4)n(C)c(=O)n5C)c3cn2)cnc1C(=O)NCC#Cc1ccc2c(c1)c(C1CCC(=O)NC1=O)nn2C (stereo not shown) [Example A30, N-(3-(3-(2,6-Dioxopiperidin-3-yl)-1-methyl-1H-indazol-5-yl)prop-2-yn-1-yl)-5-(8-(7-isopropyl-1,3-dimethyl-2-oxo-2,3-dihydro-1H-benzo[d]imidazol-5-yl)isoquinolin-3-yl)-3-methoxypicolinamide]",> 80%,1 to 9.9 nM
"CCc1cc(-c2cccc3cc(-c4ccc(C(=O)NCC#Cc5cc(C)c6cnn(C7CCC(=O)NC7=O)c6c5)nc4)ncc23)c2cc(C)c(=O)n(C)c2c1 (stereo not shown) [Example B6, N-(3-(1-(2,6-Dioxopiperidin-3-yl)-4-methyl-1H-indazol-6-yl)prop-2-yn-1-yl)-5-(8-(7-ethyl-1,3-dimethyl-2-oxo-1,2-dihydroquinolin-5-yl)isoquinolin-3-yl)picolinamide]",60 to 79%,10 to 99 nM
"Cc1cc(-c2cc3c(cc2C(F)F)N(c2ccc4c(c2)n(C)c(=O)n4C)CCC3)cnc1C(=O)NCC#Cc1ccc2occ(C3CCC(=O)NC3=O)c2c1 (stereo not shown) [Example A94, 5-(7-(difluoromethyl)-1-(1,3-dimethyl-2-oxo-2,3-dihydro-1H-benzo[d]imidazol-5-yl)-1,2,3,4-tetrahydro-quinolin-6-yl)-N-(3-(3-(2,6-dioxopiperidin-3-yl)benzofuran-5-yl)prop-2-yn-1-yl)-3-methylpicolinamide]",> 80%,1 to 9.9 nM
"Cc1cc(-c2ncc3c(n2)CCCN3c2cc(C)c3c(c2)n(C)c(=O)n3C)cnc1C(=O)NCC#Cc1cc2c(C3CCC(=O)NC3=O)cccc2o1 (stereo not shown) [Example A227, N-(3-(4-(2,6-dioxo-piperidin-3-yl)benzofuran-2-yl)prop-2-yn-1-yl)-3-methyl-5-(5-(1,3,7-trimethyl-2-oxo-2,3-dihydro-1H-benzo [d]imidazol-5-yl)-5,6,7,8-tetrahydro-pyrido[3,2-d]pyrimidin-2-yl)picolinamide]",> 80%,1 to 9.9 nM
"CCc1cc(N(C)c2ccc(-c3cnc(C(=O)NCC#Cc4cccc(NC5CCC(=O)NC5=O)c4)c(C)c3)c(Cl)c2)c2cc(C)c(=O)n(C)c2c1 (stereo not shown) [Example B11, 5-(2-Chloro-4-((7-ethyl-1,3-dimethyl-2-oxo-1,2-dihydroquinolin-5-yl)(methyl)amino)phenyl)-N-(3-(3-((2,6-dioxopiperidin-3-yl)amino)phenyl)prop-2-yn-1-yl)-3-methylpicolinamide]",> 80%,10 to 99 nM
"CCn1c(=O)n(C)c2c(C)cc(N3CCOc4nc(-c5ccc(C(=O)NCC#Cc6ccc7occ(C8CCC(=O)NC8=O)c7c6)nc5)ncc43)cc21 (stereo not shown) [Example A77, N-(3-(3-(2,6-dioxopiperidin-3-yl)benzofuran-5-yl)prop-2-yn-1-yl)-5-(5-(3-ethyl-1,7-dimethyl-2-oxo-2,3-dihydro-1H-benzo[d]imidazol-5-yl)-6,7-dihydro-5H-pyrimido[4,5-b][1,4]oxazin-2-yl)picolinamide]",60 to 79%,1 to 9.9 nM
"Cn1c(=O)n(C)c2c(N3CC4CCC(C3)O4)nc(-c3cccc4cc(-c5ccc(C(=O)NCC#Cc6cc7c(C8CCC(=O)NC8=O)cccc7o6)nc5)ncc34)cc21 (stereo not shown) [Example A253, 5-(8-(4-(8-oxa-3-azabicyclo[3.2.1]octan-3-yl)-1,3-dimethyl-2-oxo-2,3-dihydro-1H-imidazo[4,5-c]pyridin-6-yl)isoquinolin-3-yl)-N-(3-(4-(2,6-dioxopiperidin-3-yl)benzofuran-2-yl)prop-2-yn-1-yl)picolinamide]",> 80%,< 1 nM
"Cc1cc(-c2cnc(N(C)c3cc(C4CCOCC4)c4c(c3)n(C)c(=O)n4C)cn2)cnc1C(=O)NCC#Cc1ccc2occ(C3CCC(=O)NC3=O)c2c1 (stereo not shown) [Example A128, 5-(5-((1,3-dimethyl-2-oxo-7-(tetrahydro-2H-pyran-4-yl)-2,3-dihydro-1H-benzo[d]imidazol-5-yl)(methyl)amino)pyrazin-2-yl)-N-(3-(3-(2,6-dioxopiperidin-3-yl)benzofuran-5-yl)prop-2-yn-1-yl)-3-methylpicolinamide]",> 80%,1 to 9.9 nM
"Cc1cc(-c2ncc(N(C)c3cc(C(C)C)c4c(c3)n(C)c(=O)n4C)cn2)cnc1C(=O)NCC#Cc1cc2c(C3CCC(=O)NC3=O)coc2cc1F (stereo not shown) [Example A235, N-(3-(3-(2,6-dioxo-piperidin-3-yl)-6-fluorobenzofuran-5-yl)prop-2-yn-1-yl)-5-(5-((7-isopropyl-1,3-dimethyl-2-oxo-2,3-dihydro-1H-benzo [d]imidazol-5-yl)(methyl)amino)pyrimidin-2-yl)-3-methylpicolinamide]",> 80%,1 to 9.9 nM
"COc1cc(-c2cc3cccc(-c4ccc5c(c4)n(C)c(=O)n5C)c3cn2)cnc1C(=O)NCC#Cc1ccc2occ(C3CCC(=O)NC3=O)c2c1 (stereo not shown) [Example A148, 5-(8-(1,3-dimethyl-2-oxo-2,3-dihydro-1H-benzo[d]imidazol-5-yl)isoquinolin-3-yl)-N-(3-(3-(2,6-dioxo-piperidin-3-yl)benzofuran-5-yl)prop-2-yn-1-yl)-3-methoxypicolinamide]",> 80%,1 to 9.9 nM
"CC(C)c1cc(N2CCC(F)(F)c3cc(-c4ccc(C(=O)NCC#Cc5ccc6occ(C7CCC(=O)NC7=O)c6c5)nc4)ccc32)cc2c1n(C)c(=O)n2C (stereo not shown) [Example A142, 5-(4,4-difluoro-1-(7-isopropyl-1,3-dimethyl-2-oxo-2,3-dihydro-1H-benzo[d]imidazol-5-yl)-1,2,3,4-tetrahydroquinolin-6-yl)-N-(3-(3-(2,6-dioxopiperidin-3-yl)benzofuran-5-yl)prop-2-yn-1-yl)picolinamide]",> 80%,10 to 99 nM
"CC(C)c1cc(N2CCCc3cc(-c4ccc(C(=O)NCc5ccc(-c6ccn(C7CCC(=O)NC7=O)n6)cc5)nc4)c(C(F)F)cc32)cc2c1n(C)c(=O)n2C (stereo not shown) [Example A37, 5-(7-(Difluoromethyl)-1-(7-isopropyl-1,3-dimethyl-2-oxo-2,3-dihydro-1H-benzo[d]imidazol-5-yl)-1,2,3,4-tetrahydroquinolin-6-yl)-N-(4-(1-(2,6-dioxopiperidin-3-yl)-1H-pyrazol-3-yl)benzyl)picolinamide]",< 20%,> 1000 nM
